Drawing on US9932335B2 (priority 2013, dated 2018), this text covers EC50 for 20 molecules.

Broadly, the pEC50 is the EC50 on a negative log10 scale, so that one unit is a factor of ten.

For one test, the target named is T1, human M1 (Homo sapiens, UniProt P11229).
T1 construct: expressed in transfected cells; host or cells: CHO cells
T1 sequence (P11229 1-460): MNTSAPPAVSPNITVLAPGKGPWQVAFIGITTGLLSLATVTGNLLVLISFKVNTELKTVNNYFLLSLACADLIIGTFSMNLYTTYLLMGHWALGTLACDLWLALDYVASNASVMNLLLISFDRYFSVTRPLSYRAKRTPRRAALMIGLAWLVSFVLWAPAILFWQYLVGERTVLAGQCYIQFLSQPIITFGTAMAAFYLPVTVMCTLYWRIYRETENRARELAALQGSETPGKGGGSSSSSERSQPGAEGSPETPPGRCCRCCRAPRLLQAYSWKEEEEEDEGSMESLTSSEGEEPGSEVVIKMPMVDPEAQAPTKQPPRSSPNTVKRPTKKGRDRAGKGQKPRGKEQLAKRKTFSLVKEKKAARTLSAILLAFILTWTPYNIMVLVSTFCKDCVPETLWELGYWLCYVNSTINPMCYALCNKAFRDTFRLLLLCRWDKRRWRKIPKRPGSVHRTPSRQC
Kind of test: M1 PAM assay (FLIPR intracellular calcium, CHO human M1). The class given is cell-based. Summed up: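 CHO cells expressing human M1 were loaded with Fluo-4AM for 60 min at 37 °C in HBSS/20 mM HEPES/2 mM probenecid, pH 7.4, and intracellular Ca2+ was read by FLIPR (1% DMSO final). Agonism was assessed after 2 min compound preincubation against 30 nM acetylcholine. For PAM activity, an acetylcholine EC20 was added after the 2 min preincubation and read 2 min later.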
(In general: Calcium assays in cells follow changes in intracellular calcium, usually with a dye or a luminescent sensor.)

For another test, the target named is T2, M1 receptor (Rattus norvegicus, UniProt P08482).
T2 construct: expressed in transfected cells
T2 sequence (P08482 1-460): T1 sequence (P11229 1-460) with A5V, T254S, P309S, R320K, A337G, I413V
Kind of test: M1 PAM assay (FLIPR intracellular calcium), rat. The class given is cell-based.

The mark [1] stands for this setting: human M1 in CHO cells, modulator activity with EC20 of acetylcholine, FLIPR Ca2+, read-out: EC50 h PAM.
[2] abbreviates: rat, modulator activity with EC20 of acetylcholine, FLIPR Ca2+, read-out: EC50 rat PAM.

Residue numbers refer to the chain shown, from its start. pEC50: −log10 of the molar value. Like-named read-outs stand apart in the source and are kept apart here.

As for `CCCC(CO)NC(=O)c1cn(Cc2ccc(-c3cnn(C)c3)cc2F)c2cccnc12` (stereo not shown) [Example 20, 1-[2-Fluoro-4-(1-methyl-1H-pyrazol-4-yl)-benzyl]-1H-pyrrolo[3,2-b]pyridine-3-carboxylic acid (1-hydroxymethyl-butyl)-amide], the negative logarithm of the EC50 (pEC50) was 6.70 at human M1 and 6.30 at M1 receptor.
For `Cc1ccc(Cn2cc(C(=O)N[C@H]3CCCC[C@@H]3O)c3ncccc32)cc1F` [Example 46, 1-(3-fluoro-4-methylbenzyl)-N-((1S,2S)-2-hydroxycyclohexyl)-1H-pyrrolo[3,2-b]pyridine-3-carboxamide] the same measures were 6.59 and 6.35.
For `CCC(O)CNC(=O)c1cn(Cc2ccc(-c3cnn(C)c3)cc2F)c2cccnc12` (stereo not shown) [Example 14, 1-[2-Fluoro-4-(1-methyl-1H-pyrazol-4-yl)-benzyl]-1H-pyrrolo[3,2-b]pyridine-3-carboxylic acid (2-hydroxy-butyl)-amide], the negative logarithm of the EC50 (pEC50) at human M1 (setting [1]) is 7.00; at M1 receptor (setting [2]), 6.81.
Turning to `O=C(N[C@H]1CCCC[C@@H]1O)c1cn(Cc2ccc(Cl)nc2)c2cccnc12` [Example 5, 1-((6-chloropyridin-3-yl)methyl)-N-((1S,2S)-2-hydroxycyclohexyl)-1H-pyrrolo[3,2-b]pyridine-3-carboxamide], the negative-log EC50 (pEC50) is 6.31 on human M1 and 5.63 at M1 receptor.
On to `Cn1cc(-c2ccc(Cn3cc(C(=O)Nc4ncccc4CO)c4ncccc43)c(F)c2)cn1` [Example 30, 1-[2-Fluoro-4-(1-methyl-1H-pyrazol-4-yl)-benzyl]-1H-pyrrolo[3,2-b]pyridine-3-carboxylic acid (3-hydroxymethyl-pyridin-2-yl)-amide], for which the negative logarithm of the EC50 (pEC50) on human M1 is 7.08; at M1 receptor it was 6.68.
Consider `Cn1cc(-c2ccc(Cn3cc(C(=O)N[C@H]4CCCC[C@@H]4F)c4ncccc43)c(F)c2)cn1` (racemic) [Example 58, 1-(2-fluoro-4-(1-methyl-1H-pyrazol-4-yl)benzyl)-N-((1SR,2SR)-2-fluorocyclohexyl)-1H-pyrrolo[3,2-b]pyridine-3-carboxamide], for which the figures for the pEC50 on human M1 (setting [1]) and on M1 receptor (setting [2]) were 6.62 and 6.34, respectively.
Take `O=C(N[C@H]1CCCC[C@@H]1O)c1cn(Cc2ccc(-c3ccccc3)cc2)c2cccnc12` [Example 49, 1-(biphenyl-4-ylmethyl)-N-((1S,2S)-2-hydroxycyclohexyl)-1H-pyrrolo[3,2-b]pyridine-3-carboxamide]: the negative logarithm of the EC50 (pEC50) at human M1 was 6.52; on M1 receptor it was 6.29.
Turning to `Cn1cc(-c2ccc(Cn3cc(C(=O)N[C@H](CO)c4ccccc4)c4ncccc43)c(F)c2)cn1` [Example 32, 1-[2-Fluoro-4-(1-methyl-1H-pyrazol-4-yl)-benzyl]-1H-pyrrolo[3,2-b]pyridine-3-carboxylic acid ((S)-2-hydroxy-1-phenyl-ethyl)-amide], the negative logarithm of the EC50 (pEC50) on human M1 was 7.05; at M1 receptor, 6.56.
For `COc1ccc(Cn2cc(C(=O)N[C@H]3CCCC[C@@H]3O)c3ncccc32)cc1` [Example 47, N-((1S,2S)-2-hydroxycyclohexyl)-1-(4-methoxybenzyl)-1H-pyrrolo[3,2-b]pyridine-3-carboxamide] the same measures were 6.79 and 6.66.
The corresponding values for `Cn1cc(-c2ccc(Cn3cc(C(=O)N[C@H]4CCOC[C@@H]4O)c4ncccc43)c(F)c2)cn1` (single isomer, unassigned) [Example 59, 1-[[2-fluoro-4-(1-methylpyrazol-4-yl)phenyl]methyl]-N-[(3R,4S) or (3S,4R)-3-hydroxyoxan-4-yl]pyrrolo[3,2-b]pyridine-3-carboxamide] are 7.81 and 7.74.
The corresponding values for `CNC(=O)c1ccc(Cn2cc(C(=O)N[C@H]3CCCC[C@@H]3O)c3ncccc32)cc1` [Example 61, N-((1S,2S)-2-hydroxycyclohexyl)-1-(4-(methylcarbamoyl)benzyl)-1H-pyrrolo[3,2-b]pyridine-3-carboxamide] are 8.04 and 7.74.
Turning to `Cn1cc(-c2ccc(Cn3cc(C(=O)N[C@H]4CCC[C@@H]4O)c4ncccc43)c(F)c2)cn1` [Example 17, 1-[2-Fluoro-4-(1-methyl-1H-pyrazol-4-yl)-benzyl]-1H-pyrrolo[3,2-b]pyridine-3-carboxylic acid ((1S,2S)-2-hydroxy-cyclopentyl)-amide], the pEC50 is 7.19 at human M1 and 6.57 on M1 receptor.
The corresponding values for `Cn1cc(-c2ccc(Cn3cc(C(=O)N[C@@H]4CCCC[C@H]4O)c4ncccc43)c(F)c2)cn1` [Example 3, 1-(2-fluoro-4-(1-methyl-1H-pyrazol-4-yl)benzyl)-N-((1R,2R)-2-hydroxycyclohexyl)-1H-pyrrolo[3,2-b]pyridine-3-carboxamide] are 6.99 and 6.88.
Take `CC(C)[C@@H](CO)NC(=O)c1cn(Cc2ccc(-c3cnn(C)c3)cc2F)c2cccnc12` [Example 19, 1-[2-Fluoro-4-(1-methyl-1H-pyrazol-4-yl)-benzyl]-1H-pyrrolo[3,2-b]pyridine-3-carboxylic acid ((S)-1-hydroxymethyl-2-methyl-propyl)-amide]: the negative logarithm of the EC50 (pEC50) on human M1 is 6.75; at M1 receptor, 6.54.
For `Cn1cc(-c2ccc(Cn3cc(C(=O)N[C@H]4CCC[C@H]4O)c4ncccc43)c(F)c2)cn1` [Example 18, 1-[2-Fluoro-4-(1-methyl-1H-pyrazol-4-yl)-benzyl]-1H-pyrrolo[3,2-b]pyridine-3-carboxylic acid ((1S,2R)-2-hydroxy-cyclopentyl)-amide] the same measures were 7.02 and 6.71.
For the molecule `CC[C@H](C)[C@@H](CO)NC(=O)c1cn(Cc2ccc(-c3cnn(C)c3)cc2F)c2cccnc12` [Example 26, 1-[2-Fluoro-4-(1-methyl-1H-pyrazol-4-yl)-benzyl]-1H-pyrrolo[3,2-b]pyridine-3-carboxylic acid ((1S,2S)-1-hydroxymethyl-2-methyl-butyl)-amide], the pEC50 on human M1 (setting [1]) was 6.84; on M1 receptor (setting [2]), 6.52.
As for `Cn1cc(-c2ccc(Cn3cc(C(=O)NC[C@@H](O)c4ccccc4)c4ncccc43)c(F)c2)cn1` [Example 34, 1-[2-Fluoro-4-(1-methyl-1H-pyrazol-4-yl)-benzyl]-1H-pyrrolo[3,2-b]pyridine-3-carboxylic acid ((S)-2-hydroxy-2-phenyl-ethyl)-amide], the pEC50 at human M1 (setting [1]) was 6.92; at M1 receptor (setting [2]), 6.31.
Consider `Cn1cc(-c2ccc(Cn3cc(C(=O)NC4CCCCC4)c4ncccc43)c(F)c2)cn1` [Example 28, N-cyclohexyl-1-(2-fluoro-4-(1-methyl-1H-pyrazol-4-yl)benzyl)-1H-pyrrolo[3,2-b]pyridine-3-carboxamide], for which the negative-log EC50 (pEC50) on human M1 is 6.55; on M1 receptor it was 6.28.
For `Cc1ccc(Cn2cc(C(=O)N[C@H]3CCCC[C@@H]3O)c3ncccc32)cc1` [Example 43, N-((1S,2S)-2-hydroxycyclohexyl)-1-(4-methylbenzyl)-1H-pyrrolo[3,2-b]pyridine-3-carboxamide], the figures for the negative logarithm of the EC50 (pEC50) at human M1 and on M1 receptor were 6.68 and 6.21, respectively.
`Cn1cc(-c2ccc(Cn3cc(C(=O)NCC4(O)CCCC4)c4ncccc43)c(F)c2)cn1` [Example 24, 1-[2-Fluoro-4-(1-methyl-1H-pyrazol-4-yl)-benzyl]-1H-pyrrolo[3,2-b]pyridine-3-carboxylic acid (1-hydroxy-cyclopentylmethyl)-amide]: the negative logarithm of the EC50 (pEC50) on human M1 (setting [1]) was 6.71; at M1 receptor (setting [2]), 6.58.
